This is an account of results in patent publication US20050009748A1, “Compositions for delivering peptide YY and PYY agonists” (Emisphere Technologies, Inc., priority 2003, published 2005).

The nature of series [1]: Liquid oral delivery of PYY[3-36] in rats (oral gavage, serum PYY[3-36] radioimmunoassay). To be noted: oral gavage solution, Delivery Agent 200 mg/kg, PYY[3-36] 0.3 mg/kg, 1 ml/kg. In kind it is in vivo, Male Sprague-Dawley rats. The procedure:
SNAC monosodium salt, solid was dissolved in water. The pH of this solution was close to pH 7.5, so no pH adjustments were done. […] The final pH of these solutions was 7.5.
The pH was then lowered to 7.7 by adding HCl (5N). […] The final pH of these solutions varied between 7.5 and 7.6.
Each delivery agent compound (as the free acid or monosodium salts) was dissolved in water. The pH was adjusted to approximately 7.5 by adding HCl (5N) and NaOH (5N) as needed. […] The final pH of these solutions was approximately 7.5.
The typical dosing and sampling protocols were as follows. Male Sprague-Dawley rats weighing between 240-320 g were fasted up to a maximum 24 hours before the experiments and administered ketamine (44 mg/kg) and thorazine (1.5 mg/kg) by intramuscular injection before the test article administration. Afterwards, the anesthetized animals were administered the test article by oral gavage. A dosing group of five animals was administered one of the dosing solutions. For oral gavage (PO), an 11 cm Rusch 8 French catheter was adapted to a 1 ml syringe with a pipette tip. The syringe was filled with dosing solution by drawing the solution through the catheter, which was then wiped dry. The catheter was placed down the esophagus leaving 1 cm of tubing past the incisors. The dosing solution was administered by pressing the syringe plunger.
Blood samples were collected serially from the tail artery, or by cardiac puncture, typically at time=0, 15, 30, 45, 60 and 90 minutes. […] Results from the animals in each group were averaged for each time point.

Series [2] in a line: Solid oral delivery of PYY[3-36] in feed restricted rats (serum PYY radioimmunoassay). In kind it is in vivo, Male Sprague Dawley rats. To be noted: 1 tablet per animal. Here is the method:
An oral dosing tube was used.
Blood samples were collected serially from the tail artery, by cardiac puncture, or as in this case by retro-orbitally, typically at time=0, 15, 30, 60 and 90 minutes.

For series [3] the following is noted: rats, end of 7-day study, food found in the stomachs.
Experimental: Food was removed prior to dosing and returned 30 minutes after dosing.
An oral dosing tube was used. The dosing tube was inserted into the rat's mouth and carefully threaded down the rats pharynx and esophagus about 8 cm to about 15 cm depending on the weight of the rat (typically about 11 cm). The solid dosage form was delivered into the distal esophagus and/or stomach by pressing the plunger of the oral dosing tube.
Food consumption was determined every 24 hours from the weight difference between the food given to and food left over by each rat. The body weight of each rat was determined every 24 hours.
Setting [4] is: Delivery Agent 50 mg/kg, PYY[3-36] 0.3 mg/kg.
[5] abbreviates: Delivery Agent 100 mg/kg, PYY[3-36] 0.3 mg/kg.

Values joined by “and” are separate entries in the source; they are usually repeats but may differ in a detail not shown here. Equal entries are not always repeated.

Regarding `O=C(O)CCCCCCCOc1ccc(O)cc1` [Delivery Agent 13, 8-(4-hydroxyphenoxy)octanoic acid], in series [1], the “Mean Peak Serum [PYY(3-36)] (pg/ml) ± SD” value worked out at 826.48 ± 379.12 pg/mL.

On to `O=C(O)CCCCCCCNC(=O)c1cc(F)ccc1O` [Delivery Agent 10, 8-(2-hydroxy-5-fluorobenzoylamino)octanoic acid], for which, in series [1], the “Mean Peak Serum [PYY(3-36)] (pg/ml) ± SD” value was found to be 846.416 ± 55.993 pg/mL. The “Mean serum peak of PYY (pg/ml) ± SD” value in series [2] (setting [4]) was found to be 897.18 ± 549.5 pg/mL. On to `O=C(O)CCCCCCCNC(=O)c1cc(Cl)ccc1O` [Delivery Agent 7, 8-(2-hydroxy-5-chlorobenzoylamino)octanoic acid], for which the “Mean Peak Serum [PYY(3-36)] (pg/ml) ± SD” value in series [1] was determined as 663.472 ± 135.394 pg/mL. Further, the “Mean serum peak of PYY (pg/ml) ± SD” value came to 725.96 ± 110.78 pg/mL in series [2] (setting [4]); 14.35 ± 19.71 pg/mL in series [2] (Delivery Agent 100 mg/kg, PYY[3-36] 0 mg/kg (delivery agent alone)); 1064.18 ± 363.8 pg/mL in series [2] (setting [5]).

As to `O=C(O)CCCCCCCNC(=O)c1c(O)cccc1O` [Delivery Agent 5, 8-(2,6-dihydroxybenzoylamino)octanoic acid], the “Mean Peak Serum [PYY(3-36)] (pg/ml) ± SD” value in series [1] was 800.318 ± 40.61 pg/mL. PYY[3-36]: in series [3], the “effect on gastric emptying” value was “no effect on gastric emptying”. With `O=C(O)CCCCCCCOc1ccc(O)cc1` [Delivery Agent 18, 8-(4-hydroxyphenoxy)octanoate], the “Mean serum peak of PYY (pg/ml) ± SD” value turned out to be 940.33 ± 1090.65 pg/mL in series [2] (setting [4]) and 1216.13 ± 661.31 pg/mL in series [2] (setting [5]). For `COc1ccc(C(=O)NCCCCCCCC(=O)O)c(O)c1` [Delivery Agent 4, 8-(2-hydroxy-4-methoxybenzoylamino)octanoic acid], the “Mean Peak Serum [PYY(3-36)] (pg/ml) ± SD” value in series [1] turned out to be 830.246 ± 71.382 pg/mL. Besides, the “Mean serum peak of PYY (pg/ml) ± SD” value in series [2] (setting [5]) worked out at 1821.82 ± 1513.84 pg/mL.

As to `N#Cc1ccccc1OCCCCCC(=O)O` [Delivery Agent 14, 6-(2-cyanophenoxy)hexanoic acid], in series [1], the “Mean Peak Serum [PYY(3-36)] (pg/ml) ± SD” value is 913.536 ± 33.688 pg/mL and 1083.38 ± 78.878 pg/mL.

As for `Cc1ccc(O)c(C(=O)NCCCCCCCC(=O)O)c1` [Delivery Agent 9, 8-(2-hydroxy-5-methylbenzoylamino)octanoic acid], the “Mean Peak Serum [PYY(3-36)] (pg/ml) ± SD” value in series [1] is 732.912 ± 266.578 pg/mL. For the same compound, the “Mean serum peak of PYY (pg/ml) ± SD” value in series [2] (setting [5]) came out at 1309.8 ± 836.33 pg/mL. Regarding `O=C(O)CCCCCCCOc1ccc(O)cc1` [Delivery Agent 17, 8-(4-hydroxyphenoxy)octanoate], the “Mean serum peak of PYY (pg/ml) ± SD” value in series [2] (Delivery Agent 100 mg/kg, PYY[3-36] 0.3 mg/kg, listed as 17) is 897.18 ± 549.5 pg/mL. Turning to `O=C(O)CCCCCCCOc1cccc(O)c1` [Delivery Agent 12, 8-(3-hydroxyphenoxy)octanoic acid], in series [1], the “Mean Peak Serum [PYY(3-36)] (pg/ml) ± SD” value was 845.682 ± 69.846 pg/mL and 1047.46 ± 36.93 pg/mL.

Regarding `O=C(O)CCCCCCCNC(=O)c1cc(I)ccc1O` [Delivery Agent 8, 8-(2-hydroxy-5-iodobenzoylamino)octanoic acid], in series [1], the “Mean Peak Serum [PYY(3-36)] (pg/ml) ± SD” value was determined as 276.82 ± 425.45 pg/mL. Regarding `O=C(O)CCCCCCCNC(=O)c1cc(Br)ccc1O` [Delivery Agent 6, 8-(2-hydroxy-5-bromobenzoylamino)octanoic acid], the “Mean Peak Serum [PYY(3-36)] (pg/ml) ± SD” value in series [1] stood at 812.946 ± 53.616 pg/mL.
